Test results reported in ChEMBL document CHEMBL1201862, “PubChem BioAssay data set” (2004).
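48-hour exposure; five concentrations; linearly interpolated endpoints. GI50 marks 50% less growth.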 The source made the active and inactive calls. No stated cut-off is given here; in the data, active = GI50 up to about 1.1 µM and inactive = higher.

Assays:
Experiment in all cases: inhibition of tumour cell growth, NCI panel, 48 h
[1] = tested on: TK-10
[2] = tested on: ACHN
[3] = tested on: HCT-15
[4] = tested on: CAKI-1
[5] = tested on: HOP-62
[6] = tested on: NCI-H522
[7] = tested on: RPMI-8226
[8] = tested on: U-251
[9] = tested on: SF-295
[10] = tested on: K562
[11] = tested on: KM12
[12] = tested on: SK-MEL-5
[13] = tested on: UO-31
[14] = tested on: HCT-116
[15] = tested on: SNB-78

| Structure (SMILES) | GI50 [1] | GI50 [2] | GI50 [3] [µM] | GI50 [4] | GI50 [5] | GI50 [6] | GI50 [7] | GI50 [8] | GI50 [9] | GI50 [10] | GI50 [11] | GI50 [12] | GI50 [13] | GI50 [14] | GI50 [15] |
| --- | --- | --- | --- | --- | --- | --- | --- | --- | --- | --- | --- | --- | --- | --- | --- |
| O=C(CC(=O)C1CCOC1=O)C(=O)Nc1ccc(Cl)cc1Cl (stereo not given) | > 100 µM (inactive) | > 100 µM (inactive) | > 100 | > 100 µM (inactive) | > 100 µM (inactive) | > 100 µM (inactive) | > 100 µM (inactive) | > 100 µM (inactive) | > 100 µM (inactive) | > 100 µM (inactive) | > 100 µM (inactive) | > 100 µM (inactive) | > 100 µM (inactive) | > 100 µM (inactive) | > 100 µM (inactive) |
| CN1CCS(=O)(=O)NC(Cc2ccccc2)C(=O)N2CCCC2C1=O (stereo not given) | > 100 µM (inactive) | > 100 µM (inactive) | > 100 | > 100 µM (inactive) | > 100 µM (inactive) | > 100 µM (inactive) | > 100 µM (inactive) | > 100 µM (inactive) | > 100 µM (inactive) | > 100 µM (inactive) | > 100 µM (inactive) | > 100 µM (inactive) | > 100 µM (inactive) | > 100 µM (inactive) | > 100 µM (inactive) |
| COc1cc(CCc2ccc(OC(C)=O)cc2)cc(OC)c1OC | > 100 µM (inactive) | 79.4 µM (inactive) | > 100 | > 100 µM (inactive) | > 100 µM (inactive) | 52 µM (inactive) | 86.3 µM (inactive) | > 100 µM (inactive) | > 100 µM (inactive) | 63.8 µM (inactive) | > 100 µM (inactive) | > 100 µM (inactive) | 73.3 µM (inactive) | > 100 µM (inactive) | > 100 µM (inactive) |
| CCCNCCCC(NC(C)=O)C(=O)NCc1ccccc1 (stereo not given) | > 100 µM (inactive) | > 100 µM (inactive) | > 100 | > 100 µM (inactive) | > 100 µM (inactive) | > 100 µM (inactive) | > 100 µM (inactive) | > 100 µM (inactive) | > 100 µM (inactive) | > 100 µM (inactive) | > 100 µM (inactive) | > 100 µM (inactive) | > 100 µM (inactive) | > 100 µM (inactive) | > 100 µM (inactive) |
| CCN(CC)c1ccc(C(=O)c2ccccc2C(=O)O)c(O)c1 | > 100 µM (inactive) | > 100 µM (inactive) | > 100 | > 100 µM (inactive) | > 100 µM (inactive) | 42.9 µM (inactive) | > 100 µM (inactive) | > 100 µM (inactive) | > 100 µM (inactive) | > 100 µM (inactive) | > 100 µM (inactive) | > 100 µM (inactive) | > 100 µM (inactive) | > 100 µM (inactive) | > 100 µM (inactive) |
| CN(C)C(CN)CC1=C(CC(CN)N(C)C)CCC1 (stereo not given) | – | – | > 100 | > 100 µM (inactive) | > 100 µM (inactive) | > 100 µM (inactive) | > 100 µM (inactive) | > 100 µM (inactive) | > 100 µM (inactive) | > 100 µM (inactive) | > 100 µM (inactive) | > 100 µM (inactive) | > 100 µM (inactive) | > 100 µM (inactive) | > 100 µM (inactive) |
| COc1cc2c(cc1OC)C(Cc1c3ccccc3cc3ccccc13)N(C)CC2 (stereo not given) | – | – | 30.2 | 25.1 µM (inactive) | 21.4 µM (inactive) | 24.4 µM (inactive) | 13.9 µM (inactive) | 16.9 µM (inactive) | 17.4 µM (inactive) | 12.5 µM (inactive) | 16.3 µM (inactive) | 17.3 µM (inactive) | 13 µM (inactive) | 14.9 µM (inactive) | 23.9 µM (inactive) |
| C#Cc1cc(CN(CC(=O)OC(C)(C)C)CC(=O)OC(C)(C)C)nc(CN(CC(=O)OC(C)(C)C)CC(=O)OC(C)(C)C)c1 | 17.3 µM (inactive) | 4.84 µM (inactive) | 24.6 | 10 µM (inactive) | 3.92 µM (inactive) | 2.01 µM (inactive) | 2.75 µM (inactive) | 5.07 µM (inactive) | 4.39 µM (inactive) | 4.6 µM (inactive) | 3.72 µM (inactive) | 3.59 µM (inactive) | 3.71 µM (inactive) | – | 6.14 µM (inactive) |
